For one sequence, MIC results are on record in patent US20230287061A1, “NEW ANTIMICROBIAL PEPTIDES” (priority 2020, published 2023).

Ends that are not written are not given here.

The assay has as its system B. cereus.

Take ALLKVLFSWFRKHNSRRKNLPAKN [Seq ID no2]: the minimal inhibitory concentration (MIC) was found to be 256 µg/mL.

What is called MIC is the least concentration at which growth counts as inhibited.
